Experimental findings from PMC2213532 (The Journal of Experimental Medicine, 2000) are described below.

The target in test [1] is soluble H-2D^b (Mus musculus, UniProt P01899). The test can be described thus: biochemical. It counts as binding.
For test [2], the target named is soluble H-2D^b. The test can be described thus: radioligand binding.

Residues, ends and D or L forms follow the SMILES beside them.

Sequence of soluble H-2D^b (Mus musculus, UniProt P01899) (P01899 25-362): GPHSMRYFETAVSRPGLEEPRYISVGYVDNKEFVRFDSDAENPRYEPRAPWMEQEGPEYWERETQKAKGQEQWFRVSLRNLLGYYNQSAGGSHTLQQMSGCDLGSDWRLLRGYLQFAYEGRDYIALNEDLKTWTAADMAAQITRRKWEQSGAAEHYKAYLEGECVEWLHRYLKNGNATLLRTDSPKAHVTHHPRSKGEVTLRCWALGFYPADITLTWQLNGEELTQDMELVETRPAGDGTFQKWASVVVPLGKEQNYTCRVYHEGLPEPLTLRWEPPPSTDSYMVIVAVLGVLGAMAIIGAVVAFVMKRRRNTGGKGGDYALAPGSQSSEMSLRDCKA
Sequence of soluble H-2D^b (Mus musculus, UniProt P01899) (P01887 21-119, further chain): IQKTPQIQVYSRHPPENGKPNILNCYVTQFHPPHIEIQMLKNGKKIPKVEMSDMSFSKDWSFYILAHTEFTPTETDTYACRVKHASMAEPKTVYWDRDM

The term IC50 denotes the concentration needed to halve the response being measured. High values mean weaker potency in that assay, low ones greater potency in that assay. The compound `CSCC[C@H](NC(=O)[C@@H](NC(=O)[C@H](CC(=O)O)NC(=O)[C@H](CCSC)NC(=O)[C@H](CC(N)=O)NC(=O)[C@H](CCC(=O)O)NC(=O)[C@H](CC(N)=O)NC(=O)[C@H](CO)NC(=O)[C@H](C)N)[C@@H](C)O)C(=O)O` [NP366-374] (H-ASNENMDTM-OH) displayed an IC50 against soluble H-2D^b [1] of 6 nM.
“NP_(366-374) peptide of A/Memphis/102/72”: in the test with soluble H-2D^b [2], the IC50 worked out at 6 nM.
